Test results as given in US20100015169A1, “Tumor Antigens” (GREEN PEPTIDE CO., LTD., priority 2001, published 2010).

system: C1R-A2402 cells (HLA-A24+) pulsed with the same peptide; experiment: IFN-γ production (ELISA) by peptide-stimulated PBMC in reaction to peptide-pulsed C1R-A2402 cells; induction of HLA-A24-restricted CTL; type: cell-based, human; conditions: PBMC of prostate cancer patients
Method: The ability of the synthesized peptide to induce HLA-A24-restricted CTL from the PBMC that was prepared from a prostate cancer patient was examined. The PBMC were prepared from blood by a method of the art. 1×10^5 PBMC were cultured with 10 μM of each peptide in each well of a U-shaped 96-well micro-culture plate (produced by Nunc) to which 200 μl of culture medium (comprising 45% RPMI-1640 culture medium, 45% AIM-V® culture medium (Invitrogen), 100 U/ml of IL-2, 0.1 mM of MEM non-essential amino acid solution (Invitrogen), and 10% FCS) was added, at 37° C. under conditions of 5% CO2-95% air. At 4 days and 7 days of culturing, half of the culture medium was removed and replaced with a culture medium having the aforementioned composition containing the peptide equivalent to the peptide that was added in the beginning. At 10 days of culturing, the cells were collected, washed, and used as effector cells (E).
Meanwhile, each synthesized peptide (10 μM) was incubated with C1R-A2402 cells (HLA-A24^+) for 2 hours at 37° C. under conditions of 5% CO2-95% air, to make the peptide of interest bind to the HLA-A24 molecule expressed on the cell surface. C1R-A2402 cells thus pulsed with each of peptide were used as target cells (T).
The effector cells were equally divided, and mixed with a variety of target cells, followed by incubating for 18 hours at 37° C. under conditions of 5% CO2-95% air. After incubation, 100 μl of supernatant was collected, and the amount of IFN-γ produced was measured by ELISA. In so doing, the effector cells were paired with the target cells in such a way that the peptide used to induce the effector cells and the peptide pulsed to C1R-A2402 cells were the same. In addition, a peptide derived from the human immunodeficiency virus (hereinafter abbreviated as HIV) was used as a control, and the quantity of IFN-γ produced by CTL that recognized C1R-A2402 cells pulsed with the HIV peptide was taken as a background and subtracted from each measurement value. Each measurement value (NET) that has been calculated was statistically processed by the Student's t-test, and those with a P value of 0.05 or below were considered to be significant. In addition, a peptide that enhanced IFN-γ production with significance by 50 pg/ml NET or more was assessed as positive. […]

Substance	induction of HLA-A24-restricted CTL
PSCA27-36: peptide (PSCA residues 27-36) that did not induce HLA-A24-restricted CTL (LQVENCTQLG)	did not induce
PSM74-83: peptide derived from PSMA that did not induce HLA-A24-restricted CTL (LYNFTQIPHL)	did not induce
PSM178-186: peptide derived from PSMA that did not induce HLA-A24-restricted CTL (NYARTEDFF)	did not induce
PSM227-235: peptide derived from PSMA that did not induce HLA-A24-restricted CTL (LYSDPADYF)	did not induce
PSM298-306: peptide derived from PSMA that did not induce HLA-A24-restricted CTL (GYYDAQKLL)	did not induce
PSM448-456: peptide derived from PSMA that did not induce HLA-A24-restricted CTL (AYINADSSI)	did not induce
PSM520-528: peptide derived from PSMA that did not induce HLA-A24-restricted CTL (DFEVFFQRL)	did not induce
PSM565-574: peptide derived from PSMA that did not induce HLA-A24-restricted CTL (FYDPMFKYHL)	did not induce
PSM584-593: peptide derived from PSMA that did not induce HLA-A24-restricted CTL (VFELANSIVL)	did not induce
PSM606-614: peptide derived from PSMA that did not induce HLA-A24-restricted CTL (KYADKIYSI)	did not induce
PSM624-633: peptide derived from PSMA that did not induce HLA-A24-restricted CTL (TYSVSFDSLF)	did not induce
PSM699-708: peptide derived from PSMA that did not induce HLA-A24-restricted CTL (KYAGESFPGI)	did not induce
PSM704-712: peptide derived from PSMA that did not induce HLA-A24-restricted CTL (SFPGIYDAL)	did not induce

same assay, conditions: PBMC of prostate cancer patients, 10 μM peptide, 10 days; positive = significant, 50 pg/ml NET or more; Example 1

Substance	cases in which the peptide enhanced the production of IFN-γ from PBMC
PSCA76-84: peptide derived from PSCA, residues 76-84, HLA-A24-binding motif (DYYVGKKNI; A peptide recognized by HLA-A24 restricted cytotoxic T lymphocytes, which is designed based on the amino acid sequence of PSCA)	1 out of 12
PSCA82-91: peptide derived from PSCA, residues 82-91, HLA-A24-binding motif (KNITCCDTDL; A peptide recognized by HLA-A24 restricted cytotoxic T lymphocytes, which is designed based on the amino acid sequence of PSCA)	2 out of 12
